According to patent US10759794B2, “2-phenyl-3-(piperazinomethyl)imidazo[1,2-A]pyridine derivatives as blockers of task-1 and task-2 channels, for the treatment of sleep-related breathing disorders” (BAYER PHARMA AKTIENGESELLSCHAFT, priority 2015, dated 2020):

Experiments:
Assay type in all cases: cell-based
human TASK-1 [1] = target: T1, human TASK-1 (Homo sapiens (Human), UniProt O14649); assay: Two-electrode voltage clamp analysis of human TASK-1 channels in Xenopus laevis oocytes
Method: (§1) B-1. In Vitro Electrophysiological Analysis of the Human TASK-1 and TASK-3 Channels Via Two-Electrode Voltage Clamp Technique in Xenopus laevis Oocytes
(§2) Xenopus laevis oocytes were selected as described elsewhere in an exemplary manner [Decher et al., FEBS Lett. 492, 84-89 (2001)]. Subsequently, the oocytes were injected with 0.5-5 ng of a cRNA solution coding for TASK-1 or TASK-3. For the electrophysiological analysis of the channel proteins expressed in the oocytes, the two-electrode voltage clamp technique [Stühmer, Methods Enzymol. 207, 319-339 (1992)] was used. The measurements were carried out as described [Decher et al., FEBS Lett. 492, 84-89 (2001)] at room temperature (21-22° C.) using a Turbo TEC 10CD amplifier (NPI), recorded at 2 kHz and filtered with 0.4 kHz. Substance administration was performed using a gravitation-driven perfusion system. Here, the oocyte is located in a measuring chamber and exposed to the solvent stream of 10 ml/min. The level in the measuring chamber is monitored and regulated by sucking off the solution using a peristaltic pump.

human TASK-3 [2] = target: T2, human TASK-3 (Homo sapiens (Human), UniProt Q9NPC2); assay: Two-electrode voltage clamp analysis of human TASK-3 channels in Xenopus laevis oocytes
T2 sequence (Q9NPC2 whole entry): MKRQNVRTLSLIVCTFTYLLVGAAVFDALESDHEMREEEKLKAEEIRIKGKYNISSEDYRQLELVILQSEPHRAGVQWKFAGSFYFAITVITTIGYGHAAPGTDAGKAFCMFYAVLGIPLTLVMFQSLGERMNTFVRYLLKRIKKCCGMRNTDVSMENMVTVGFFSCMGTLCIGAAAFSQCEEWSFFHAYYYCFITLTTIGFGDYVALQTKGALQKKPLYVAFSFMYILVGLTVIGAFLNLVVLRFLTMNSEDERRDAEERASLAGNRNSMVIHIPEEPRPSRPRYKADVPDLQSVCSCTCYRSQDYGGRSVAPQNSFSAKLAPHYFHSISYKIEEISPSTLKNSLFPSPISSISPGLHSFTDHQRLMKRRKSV
Method: as §1, §2

human TASK-3 [3] = target: T2, human TASK-3; assay: Inhibition of recombinant TASK-3 in stably transfected CHO cells (voltage-sensitive dye, FLIPR); details: depolarization induced by 40 mM potassium chloride, Table 2A
Method: (§3) B-2. Inhibition of Recombinant TASK-1 and TASK-3 In Vitro
(§4) The investigations on the inhibition of the recombinant TASK-1 and TASK-3 channels were carried out using stably transfected CHO cells. Here, the compounds according to the invention were tested with administration of 40 mM of potassium chloride in the presence of a voltage-sensitive dye using the method described in detail in the following references [Whiteaker et al., Validation of FLIPR membrane potential dye for high-throughput screening of potassium channel modulators, J. Biomol. Screen. 6 (5), 305-312 (2001); Molecular Devices FLIPR Application Note: Measuring membrane potential using the FLIPR® membrane potential assay kit on Fluorometric Imaging Plate Reader (FLIPR®) systems, http://www.moleculardevices.com/reagents-supplies/assay-kits/ion-channels/flipr-membrane-potential-assay-kits]. The activity of the test substances was determined as their ability to inhibit a depolarization induced in the recombinant cells by 40 mM potassium chloride. The concentration which can block half of this depolarization is referred to as IC50.

human TASK-1 [4] = target: T1, human TASK-1; assay: Inhibition of recombinant TASK-1 in stably transfected CHO cells (voltage-sensitive dye, FLIPR); details: depolarization induced by 40 mM potassium chloride, Table 2A
Method: as §3, §4

[5] = oocytes, voltage clamp, Table 1B
[6] = oocytes, voltage clamp, comparative compounds, Table 1B
[7] = Xenopus laevis oocytes, two-electrode voltage clamp, room temperature, Table 1A

T1 sequence (O14649 whole entry): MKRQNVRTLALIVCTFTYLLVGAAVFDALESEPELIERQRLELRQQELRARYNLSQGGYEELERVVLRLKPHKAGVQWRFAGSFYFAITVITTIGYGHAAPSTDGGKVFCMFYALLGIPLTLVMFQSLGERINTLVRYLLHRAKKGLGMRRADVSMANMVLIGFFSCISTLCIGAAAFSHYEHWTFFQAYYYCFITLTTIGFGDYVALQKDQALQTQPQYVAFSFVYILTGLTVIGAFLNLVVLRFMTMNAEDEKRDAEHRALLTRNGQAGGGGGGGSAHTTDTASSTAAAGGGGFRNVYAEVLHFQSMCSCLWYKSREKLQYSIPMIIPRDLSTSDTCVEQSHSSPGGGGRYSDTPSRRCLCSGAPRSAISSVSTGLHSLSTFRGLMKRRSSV

SMILES | IC50 (human TASK-3 [3]) | IC50 (human TASK-1 [4]) | other results
O=C(c1ccccc1Cl)N1CCN(Cc2c(-c3ccc(Cl)cc3)nc3ccc(-c4ccccc4)cn23)CC1 [drawing 122] |  |  | inhibition at 1 µM (human TASK-1 [1]; [5]): 6.3 ± 1.4%; inhibition at 10 µM (human TASK-1 [1]; [5]): 16.9 ± 3.2%; IC50 (human TASK-1 [1]; [6]): > 30000 nM; inhibition at 1 µM (human TASK-3 [2]; [5]): 9.3 ± 3.4%; inhibition at 10 µM (human TASK-3 [2]; [5]): 19.4 ± 4.6%; IC50 (human TASK-3 [2]; [6]): > 30000 nM
O=C(C1CCCC1)N1CCN(Cc2c(-c3ccc(Cl)cc3)nc3ccccn23)CC1 [Example 2, (4-{[2-(4-Chlorophenyl)imidazo [1,2-a]pyridin-3-yl]methyl}piperazin-1-yl)(cyclopentyl)methanone] | 20 nM | 63 nM | IC50 (human TASK-1 [1]; [7]): 2.8 ± 1.1 nM; IC50 (human TASK-3 [2]; [7]): 21.8 ± 2.1 nM
O=C(c1cnccn1)N1CCN(Cc2c(-c3ccc(Cl)cc3)nc3ccc(C4CC4)cn23)CC1 [drawing 126] |  |  | inhibition at 1 µM (human TASK-1 [1]; [5]): 27.7 ± 4.5%; inhibition at 10 µM (human TASK-1 [1]; [5]): 55.2 ± 1.7%; IC50 (human TASK-1 [1]; [6]): > 1000 nM; inhibition at 1 µM (human TASK-3 [2]; [5]): 8.1 ± 2.6%; inhibition at 10 µM (human TASK-3 [2]; [5]): 48.2 ± 4.3%; IC50 (human TASK-3 [2]; [6]): > 10000 nM
O=C(c1ccncc1)N1CCN(Cc2c(-c3ccc(Cl)cc3)nc3ccc(C4CC4)cn23)CC1 [drawing 124] |  |  | inhibition at 1 µM (human TASK-1 [1]; [5]): 47.2 ± 1.5%; inhibition at 10 µM (human TASK-1 [1]; [5]): 49.9 ± 3.3%; IC50 (human TASK-1 [1]; [6]): > 1000 nM; inhibition at 1 µM (human TASK-3 [2]; [5]): 12.1 ± 1.8%; inhibition at 10 µM (human TASK-3 [2]; [5]): 56.1 ± 2.3%; IC50 (human TASK-3 [2]; [6]): > 1000 nM
CC(C)Oc1cccc(C(=O)N2CCN(Cc3c(-c4ccc(Cl)cc4)nc4ccccn34)CC2)n1 [Example 39] | 56 nM | 440 nM | IC50 (human TASK-1 [1]; [7]): 13.4 ± 0.9 nM; IC50 (human TASK-3 [2]; [7]): 6.2 ± 1.1 nM
O=C(C1CCCC1)N1CCN(Cc2c(-c3ccc(Br)cc3)nc3ccccn23)CC1 [Example 1, (4-{[2-(4-Bromophenyl)imidazo[,2-a]pyridin-3-yl]methyl}piperazin-1-yl)(cyclopentyl)methanone] | 17 nM | 77 nM | IC50 (human TASK-1 [1]; [7]): 7.9 ± 0.5 nM; IC50 (human TASK-3 [2]; [7]): 1.04 ± 0.23 nM
CC(C)c1ccc(-c2nc3ccccn3c2CN2CCN(C(=O)C3CCCC3)CC2)cc1 [Example 54] | 225 nM | 479 nM | IC50 (human TASK-1 [1]; [7]): 4.3 ± 1.3 nM; IC50 (human TASK-3 [2]; [7]): 38.2 ± 1.4 nM
COc1cccc(C(=O)N2CCN(Cc3c(-c4ccc(Br)cc4)nc4ccccn34)CC2)n1 [Example 47] | 18 nM | 140 nM | IC50 (human TASK-1 [1]; [7]): 4.9 ± 0.4 nM; IC50 (human TASK-3 [2]; [7]): 2.3 ± 0.3 nM
O=C(c1cccc(OC2CCC2)n1)N1CCN(Cc2c(-c3ccc(Cl)cc3)nc3ccccn23)CC1 [Example 41] | 190 nM | 1300 nM | 
O=C(c1cccc(F)c1)N1CCN(Cc2c(-c3ccc(Cl)cc3)nc3ccc(C4CC4)cn23)CC1 [drawing 123] |  |  | inhibition at 1 µM (human TASK-1 [1]; [5]): 30 ± 3.3%; inhibition at 10 µM (human TASK-1 [1]; [5]): 59.9 ± 1.7%; IC50 (human TASK-1 [1]; [6]): > 1000 nM; inhibition at 1 µM (human TASK-3 [2]; [5]): 29.7 ± 2.6%; inhibition at 10 µM (human TASK-3 [2]; [5]): 56.1 ± 4.6%; IC50 (human TASK-3 [2]; [6]): > 1000 nM
CC(C)c1cccc(C(=O)N2CCN(Cc3c(-c4ccc(Cl)cc4)nc4ccccn34)CC2)c1 [Example 33] | 2000 nM | 2500 nM | 
COc1cccc(-c2nc3ccccn3c2CN2CCN(C(=O)C3CCC3)CC2)c1 [drawing 125] |  |  | inhibition at 1 µM (human TASK-1 [1]; [5]): 49.6 ± 6.7%; inhibition at 10 µM (human TASK-1 [1]; [5]): 75 ± 3.5%; IC50 (human TASK-1 [1]; [6]): > 1000 nM; inhibition at 1 µM (human TASK-3 [2]; [5]): 34.6 ± 2.7%; inhibition at 10 µM (human TASK-3 [2]; [5]): 73.6 ± 3.7%; IC50 (human TASK-3 [2]; [6]): > 1000 nM
O=C(c1cccc(Cl)c1)N1CCN(Cc2c(-c3ccc(Cl)cc3)nc3ccccn23)CC1 [Example 36] | 190 nM | 520 nM | 
O=C(C1CCC1)N1CCN(Cc2c(-c3ccc(Cl)cc3)nc3ccccn23)CC1 [Example 18] | 120 nM | 242 nM | 
O=C(C1CCC1)N1CCN(Cc2c(-c3ccc(F)cc3)nc3ccccn23)CC1 [Example 49] | 1700 nM | 1830 nM | 
O=C(c1ccccc1F)N1CCN(Cc2c(-c3ccc(Cl)cc3)nc3ccccn23)CC1 [Example 7, (4-{[2-(4-Chlorophenyl)imidazo [1,2-a]pyridin-3-yl]methyl}piperazin-1-yl)(2-fluorophenyl)methanone] | 98 nM | 350 nM | 
CC(C)c1ccc(-c2nc3ccccn3c2CN2CCN(C(=O)c3ccccc3F)CC2)cc1 [Example 53] | 1000 nM | 2840 nM | 
COc1ccccc1C(=O)N1CCN(Cc2c(-c3ccc(Cl)cc3)nc3ccccn23)CC1 [Example 20] | 52 nM | 305 nM | 
O=C(c1cc(F)ccc1Cl)N1CCN(Cc2c(-c3ccc(Cl)cc3)nc3ccccn23)CC1 [Example 16] | 110 nM | 304 nM | 
O=C(c1cccc(OC(F)F)n1)N1CCN(Cc2c(-c3ccc(Cl)cc3)nc3ccccn23)CC1 [Example 44] | 17 nM | 270 nM | 
O=C(c1ccccc1Cl)N1CCN(Cc2c(-c3ccc(Cl)cc3)nc3ccccn23)CC1 [Example 37] | 60 nM | 370 nM | 
CC(C)c1ccccc1C(=O)N1CCN(Cc2c(-c3ccc(Cl)cc3)nc3ccccn23)CC1 [Example 34] | 63 nM | 400 nM | 
COc1cccc(C(=O)N2CCN(Cc3c(-c4ccc(Cl)cc4)nc4ccccn34)CC2)n1 [Example 3, (4-{[2-(4-Chlorophenyl)imidazo [1,2-a]pyridin-3-yl]methyl}piperazin-1-yl)(6-methoxypyridin-2-yl)methanone] | 28 nM | 139 nM | IC50 (human TASK-1 [1]; [7]): 4.2 ± 0.6 nM; IC50 (human TASK-3 [2]; [7]): 27.9 ± 4 nM
COc1cccc(C(=O)N2CCN(Cc3c(-c4ccc(C(C)C)cc4)nc4ccccn34)CC2)n1 [Example 55] | 141 nM | 490 nM | IC50 (human TASK-1 [1]; [7]): 45 ± 6.7 nM; IC50 (human TASK-3 [2]; [7]): 79.6 ± 10.8 nM
O=C(c1ccccc1F)N1CCN(Cc2c(-c3ccc(Br)cc3)nc3ccccn23)CC1 [Example 4, (4-{[2-(4-Bromophenyl)imidazo [1,2-a]pyridin-3-yl]methyl}piperazin-1-yl)(2-fluorophenyl)methanone] | 46 nM | 172 nM | IC50 (human TASK-1 [1]; [7]): 9.7 ± 0.9 nM; IC50 (human TASK-3 [2]; [7]): 15 ± 2.1 nM

Now from value to compound, other results behind:

IC50 (human TASK-3 [3]) | IC50 (human TASK-1 [4]) | SMILES | other results
3 nM | 71 nM | COc1ccc(C)c(C(=O)N2CCN(Cc3c(-c4ccc(Cl)cc4)nc4ccccn34)CC2)n1 [Example 72] | 
1900 nM | 1910 nM | COc1ccccc1C(=O)N1CCN(Cc2c(-c3ccc(C)cc3)nc3ccccn23)CC1 [Example 58] | 
3100 nM | 1200 nM | N#Cc1ccc(-c2nc3ccccn3c2CN2CCN(C(=O)C3CCCC3)CC2)cc1 [Example 62] | 
9.4 nM | 42 nM | O=C(c1cccc(OC(F)(F)F)n1)N1CCN(Cc2c(-c3ccc(Cl)cc3)nc3ccccn23)CC1 [Example 67, (4-{[2-(4-Chlorophenyl)imidazo [1,2-a]pyridin-3-yl]methyl}piperazin-1-yl) [6-(trifluoromethoxy)pyridin-2-yl]methanone] | 
